Article PMC9960696, “Functional Expression of Recombinant Candida auris Proteins in Saccharomyces cerevisiae Enables Azole Susceptibility Evaluation and Drug Discovery” (Journal of Fungi, 2023)

Molecular target: T1, CauErg11-6×His (Candidozyma auris, UniProt A0A2H1A309)
T1 construct: gene B9J08_03698; full-length, C-terminal GGR linker and 6xHis kept; expressed in S. cerevisiae ADΔΔ (Y2767, native ERG11 deleted); DM-solubilised, Ni-NTA partially purified; mutant Y132F in strain Y2768
Assay: type II difference spectra titration
Assay type: binding
From the text: type II difference spectra titration on CauErg11-6×His

T1 sequence (A0A2H1A309 entry or part of it): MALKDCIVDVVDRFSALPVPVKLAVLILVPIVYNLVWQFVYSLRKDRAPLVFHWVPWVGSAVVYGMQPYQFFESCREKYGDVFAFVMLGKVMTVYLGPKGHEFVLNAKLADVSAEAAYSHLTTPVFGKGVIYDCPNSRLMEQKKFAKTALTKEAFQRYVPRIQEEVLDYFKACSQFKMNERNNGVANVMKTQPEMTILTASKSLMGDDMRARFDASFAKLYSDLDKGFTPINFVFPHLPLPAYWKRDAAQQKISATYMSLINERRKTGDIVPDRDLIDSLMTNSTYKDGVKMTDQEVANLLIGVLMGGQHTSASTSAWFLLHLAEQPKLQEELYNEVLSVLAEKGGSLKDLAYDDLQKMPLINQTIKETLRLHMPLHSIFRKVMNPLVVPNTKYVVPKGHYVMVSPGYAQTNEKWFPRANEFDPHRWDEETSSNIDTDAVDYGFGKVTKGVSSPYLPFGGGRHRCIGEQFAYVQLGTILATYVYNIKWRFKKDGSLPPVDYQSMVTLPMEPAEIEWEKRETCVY

Row | SMILES | Kd [nM]
1 | C[C@@H](c1ncncc1F)[C@](O)(Cn1cncn1)c1ccc(F)cc1F [VRC, Voriconazole] | 740
2 | CC[C@@H]([C@H](C)O)n1ncn(-c2ccc(N3CCN(c4ccc(OC[C@@H]5CO[C@@](Cn6cncn6)(c6ccc(F)cc6F)C5)cc4)CC3)cc2)c1=O [POS, Posaconazole] | 340
3 | C[C@@H](c1nc(-c2ccc(C#N)cc2)cs1)[C@](O)(Cn1cncn1)c1cc(F)ccc1F [ISA, Isavuconazole] | 200
